We go through one compound from PMC10529583, “A new polymodal gating model of the proton-activated chloride channel” (PLOS Biology, 2023).

As a reminder, the IC50 is the concentration that inhibits the measured activity by half. Lower therefore signals greater potency in that assay. A word on the EC50: it is the concentration that produces a half-maximal response. Read a low EC50 as greater potency.

Type in all cases: cell-based
Test [1] addresses T1, human PAC channel (wt-PAC) (Homo sapiens, UniProt Q9H813, F196A/R237A).
T1 construct: gene PACC1; full-length, homotrimer; pCMV-blank, transiently expressed in PACC1-knockout HEK293T cells; library screen on endogenous PAC of HEK293T cells
In words: whole-cell patch clamp, inhibition of current. On the technique in general: Patch clamp records ionic current or voltage across a cell membrane.

Test [2] concerns the target T2, human PAC channel (wt-PAC) (Homo sapiens, UniProt Q9H813, A81C/L309A/P303A/T306A).
T2 construct: gene PACC1; full-length, homotrimer; pCMV-blank, transiently expressed in PACC1-knockout HEK293T cells; library screen on endogenous PAC of HEK293T cells
Put plainly: whole-cell patch clamp, inhibition of current.

Test [3] has as its target T3, human PAC channel (wt-PAC) (Homo sapiens, UniProt Q9H813, P303A/T306A/L309A).
T3 construct: gene PACC1; full-length, homotrimer; pCMV-blank, transiently expressed in PACC1-knockout HEK293T cells; library screen on endogenous PAC of HEK293T cells
In words: whole-cell patch clamp, activation of current. The following applies: pH 5.34; activation (site 1).

Test [4] concerns the target T4, human PAC channel (wt-PAC) (Homo sapiens, UniProt Q9H813, R237A).
T4 construct: gene PACC1; full-length, homotrimer; pCMV-blank, transiently expressed in PACC1-knockout HEK293T cells; library screen on endogenous PAC of HEK293T cells
In words: whole-cell patch clamp, effect of […] compound on current. The following applies: root pH of the mutant; inhibited, not activated.

The target of test [5] is T5, human PAC channel (wt-PAC) (Homo sapiens, UniProt Q9H813, A321C).
T5 construct: gene PACC1; full-length, homotrimer; pCMV-blank, transiently expressed in PACC1-knockout HEK293T cells; library screen on endogenous PAC of HEK293T cells
Put plainly: whole-cell patch clamp, activation of current.

Test [6] addresses T6, human PAC channel (wt-PAC) (Homo sapiens, UniProt Q9H813, F196A).
T6 construct: gene PACC1; full-length, homotrimer; pCMV-blank, transiently expressed in PACC1-knockout HEK293T cells; library screen on endogenous PAC of HEK293T cells
Put plainly: whole-cell patch clamp, inhibition of current.

Test [7] deals with T7, human PAC channel (wt-PAC) (Homo sapiens, UniProt Q9H813).
T7 construct: gene PACC1; full-length, homotrimer; pCMV-blank, transiently expressed in PACC1-knockout HEK293T cells; library screen on endogenous PAC of HEK293T cells
In words: whole-cell patch clamp, inhibition of proton-evoked current. The following applies: pH 4.6, open-state pore site (site 2, second site), voltage ramp -70 to +80 mV.

Test [8] deals with T5, human PAC channel (wt-PAC). In words: whole-cell patch clamp, inhibition of basal current.
Test [9] deals with T7, human PAC channel (wt-PAC). In words: whole-cell patch clamp, activation of proton-evoked current.
Test [10] addresses T8, human PAC channel (wt-PAC) (Homo sapiens, UniProt Q9H813, A81C).
T8 construct: gene PACC1; full-length, homotrimer; pCMV-blank, transiently expressed in PACC1-knockout HEK293T cells; library screen on endogenous PAC of HEK293T cells
Put plainly: whole-cell patch clamp, inhibition of current.

T5 sequence (Q9H813 whole entry A321C): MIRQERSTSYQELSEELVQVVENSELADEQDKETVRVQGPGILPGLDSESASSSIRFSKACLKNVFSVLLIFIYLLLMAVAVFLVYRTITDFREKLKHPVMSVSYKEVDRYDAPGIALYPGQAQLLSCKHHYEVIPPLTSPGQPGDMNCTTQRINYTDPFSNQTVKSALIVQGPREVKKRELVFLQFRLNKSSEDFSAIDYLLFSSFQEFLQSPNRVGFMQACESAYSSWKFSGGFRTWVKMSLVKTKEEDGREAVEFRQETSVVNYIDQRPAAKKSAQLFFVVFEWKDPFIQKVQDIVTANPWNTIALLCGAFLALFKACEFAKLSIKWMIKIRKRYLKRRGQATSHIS
T7 sequence (Q9H813 whole entry): as the sequence (Q9H813 whole entry A321C) above, with C321A counted along it
T1 sequence (Q9H813 whole entry F196A/R237A): as the sequence (Q9H813 whole entry A321C) above, with F196A, R237A, C321A counted along it
T2 sequence (Q9H813 whole entry A81C/P303A/T306A/L309A): as the sequence (Q9H813 whole entry A321C) above, with A81C, P303A, T306A, L309A, C321A counted along it
T6 sequence (Q9H813 whole entry F196A): as the sequence (Q9H813 whole entry A321C) above, with F196A, C321A counted along it
T3 sequence (Q9H813 whole entry P303A/T306A/L309A): as the sequence (Q9H813 whole entry A321C) above, with P303A, T306A, L309A, C321A counted along it
T4 sequence (Q9H813 whole entry R237A): as the sequence (Q9H813 whole entry A321C) above, with R237A, C321A counted along it
T8 sequence (Q9H813 whole entry A81C): as the sequence (Q9H813 whole entry A321C) above, with A81C, C321A counted along it

As for `Cc1occc1C(=O)Nc1ccc(I)cc1C(=O)O` [C77304, 5–iodo–2–(2–methylfuran–3–carboxamido)benzoicacid], the IC50 in test [1] is 5.7 ± 0.9 µM; in [2], approximately 200 µM; in [6], 3 ± 0.5 µM; in test [7], 8.3 ± 1.0 µM; in test [8] it was 11.8 ± 1.9 µM; in [10], 18.3 ± 3 µM. Further, the “whole-cell patch clamp, activation of current” value in test [3] was “the P303A/T306A/L309A mutations did not affect the activation effect of C77304 on the channel”. Also, the “whole-cell patch clamp, effect of 5 μM compound on current” value in test [4] was “currents mediated by the PAC/R237A mutant, but not any others, were significantly inhibited”. For the same compound, the figures for the EC50 in test [5] and in test [9] were 1000 ± 400 nM and 600 ± 200 nM, respectively.
